Experimental data published in PubChem BioAssay (NCI).
Where “and” joins values, the source holds several entries; their conditions need not be identical. Equal entries are not always repeated.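 Following 48 hours of exposure in 96-well plates, responses at five concentrations were used to interpolate endpoints linearly. At the GI50, growth is halved. TGI: concentration producing complete growth inhibition.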

Columns and labels:
Assay in all cases: DTP human tumour cell line panel, 48 h
NCI-H23 lung = system: NCI-H23 lung
SK-MEL-5 melanoma = system: SK-MEL-5 melanoma
K-562 leukemia = system: K-562 leukemia
OVCAR-5 ovarian = system: OVCAR-5 ovarian
M14 melanoma = system: M14 melanoma
HT29 colon = system: HT29 colon
OVCAR-8 ovarian = system: OVCAR-8 ovarian
UO-31 renal = system: UO-31 renal
OVCAR-3 ovarian = system: OVCAR-3 ovarian
CCRF-CEM leukemia = system: CCRF-CEM leukemia
RPMI-8226 leukemia = system: RPMI-8226 leukemia
OVCAR-4 ovarian = system: OVCAR-4 ovarian

| Compound | TGI (NCI-H23 lung) | TGI (SK-MEL-5 melanoma) | TGI (K-562 leukemia) | TGI (OVCAR-5 ovarian) | TGI (M14 melanoma) | TGI (HT29 colon) | TGI (OVCAR-8 ovarian) | TGI (UO-31 renal) | TGI (OVCAR-3 ovarian) | TGI (CCRF-CEM leukemia) | TGI (RPMI-8226 leukemia) | TGI (OVCAR-4 ovarian) | GI50 (NCI-H23 lung) | GI50 (K-562 leukemia) | GI50 (OVCAR-8 ovarian) | GI50 (OVCAR-3 ovarian) | GI50 (CCRF-CEM leukemia) | GI50 (RPMI-8226 leukemia) | GI50 (OVCAR-4 ovarian) |
| --- | --- | --- | --- | --- | --- | --- | --- | --- | --- | --- | --- | --- | --- | --- | --- | --- | --- | --- | --- |
| CC1=CC(=C(c2ccc(N)c(C)c2)c2ccc(N)c(C)c2)C=CC1=N | 12.5 µM | 5.75 µM | 22.5 µM | > 84.4 µM | 18.3 µM | 15.6 µM | 18.3 µM | 84.9 µM | 16.7 µM | 23 µM | 29.6 µM | 52.8 µM |  |  |  |  |  |  |  |
| CC[N+](C)(C)c1ccc(C(=C2C=CC(=[N+](C)C)C=C2)c2ccc(N(C)C)cc2)cc1 | 55 µM | 26.9 µM | 15.2 µM | > 100 µM | 31.4 µM | 30.6 µM | 64.9 µM | 70.1 µM | 22.5 µM | 33.5 µM | 7.36 µM | 38.3 µM |  |  |  |  |  |  |  |
| N#Cc1c(-c2cccc(Br)c2)cc(-c2ccc(Cl)cc2)nc1N | 71.7 µM | 30.7 µM | 81.9 µM | 65.2 µM | 41.1 µM | 39.2 µM | > 100 µM | 48.7 µM | 77.3 µM | 87.5 µM | 45.7 µM | 13.5 µM |  |  |  |  |  |  |  |
| COc1cc2c(cc1C)NC(=O)/C2=C\c1cccnc1 | 23.3 µM | 33.5 µM | > 100 µM | 31.8 µM | 77 µM | > 100 µM | 72.6 µM | 39.5 µM | 33.6 µM | > 100 µM | 55.5 µM | 40.4 µM |  |  |  |  |  |  |  |
| COc1cccc2c1C(=O)c1c(O)c3c(c(O)c1C2=O)CC(O)(C(C)=O)CC3OC1CC([N+](C)(C)C)C(O)C(C)O1 (stereo unspecified) | > 100 µM | > 100 µM | > 100 µM | > 100 µM | > 100 µM | > 100 µM | > 100 µM | > 100 µM | > 100 µM | > 100 µM | > 100 µM | > 100 µM |  |  |  |  |  |  |  |
| COC1C(=[N+]=[N-])C(=O)NC(=O)N1C1OC(COC(c2ccccc2)(c2ccccc2)c2ccccc2)C(O)C1O (stereo unspecified) | 34.8 µM | 30 µM | 49.4 µM | 31.7 µM | 34.6 µM | 35.3 µM | 36.9 µM | 32.2 µM | 32.9 µM | 41.6 µM | 61.8 µM | 27.8 µM |  |  |  |  |  |  |  |
| OC12c3ccccc3C1CCCCCCCCCC21OCCCO1 (stereo unspecified) | > 100 µM | > 100 µM | > 100 µM | > 100 µM | > 100 µM | > 100 µM | > 100 µM | > 100 µM | > 100 µM | > 100 µM | > 100 µM | > 100 µM |  |  |  |  |  |  |  |
| CCOC(=O)c1csc(NC(=O)CN2CCCCC2)n1 | > 100 µM | > 100 µM | > 100 µM | > 100 µM | > 100 µM | > 100 µM | > 100 µM | > 100 µM | > 100 µM | > 100 µM | > 100 µM | > 100 µM |  |  |  |  |  |  |  |
| COC(=O)C1C(O)C(C)C(O)C(C)/C=C\C=C(C)C(=O)Nc2c(C)c(OC(C)=O)c3c(c2O)C(=O)C(C)=C2OCOC(=C23)C(C)=CC(C)(O)C(O)C(C)C1O (stereo unspecified) | 58.9 µM and > 100 µM | 74.5 µM and > 100 µM | > 100 µM | > 100 µM | > 100 µM | 40.2 µM and > 100 µM | 47 µM and > 100 µM | > 100 µM | > 72 µM and 64.2 µM | 50.9 µM and > 100 µM | 41.3 µM and > 100 µM | > 100 µM | 32.6 µM and > 100 µM | 28.3 µM and > 100 µM | 23.6 µM | 37.8 µM | 18.9 µM and 54.7 µM | 15.9 µM and 64.3 µM | > 66.3 µM and 14.6 µM |
| O=S(=O)(O)c1cccc2ccc(O)c(N=Nc3ccc(S(=O)(=O)c4ccc(N=Nc5c(O)ccc6cccc(S(=O)(=O)O)c56)cc4)cc3)c12 | > 100 µM | > 100 µM | > 100 µM | > 100 µM | > 100 µM | > 100 µM | > 100 µM | > 100 µM | > 100 µM | > 100 µM | > 100 µM | > 100 µM |  |  |  |  |  |  |  |
| O=S(=O)(O)c1ccc(N=Nc2c(O)ccc3ccccc23)cc1 | > 100 µM | > 100 µM | > 100 µM | > 100 µM | > 100 µM | > 100 µM | > 100 µM | > 100 µM | > 100 µM | > 100 µM | > 100 µM | > 100 µM |  |  |  |  |  |  |  |
| O=S(=O)(O)c1cc(S(=O)(=O)O)c2c(N=Nc3ccccc3)c(O)ccc2c1 | > 100 µM | > 100 µM | > 100 µM | > 100 µM | > 100 µM | > 100 µM | > 100 µM | > 100 µM | > 100 µM | > 100 µM | > 100 µM | > 100 µM |  |  |  |  |  |  |  |
